Measured values: patent US20210053957A1, “HERBICIDAL COMPOUNDS” (SYNGENTA PARTICIPATIONS AG, priority 2018, published 2021)

Experiments:
Assay in all cases: Post-emergence efficacy, glasshouse spray test
Type in all cases: in vivo
[1] = system: Digitaria sanguinalis (DIGSA); details: Application Rate 500 g/Ha, evaluated after 13 days; for pest or weed control at 500 g/ha: Digitaria sanguinalis, post-emergence, 312 h, read-out: Control of weed species after post-emergence application, DIGSA (100=total damage to plant; 0=no damage to plant)
In short: (§1)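 Visual damage rating (0 = no damage, 100 = total damage) taken 13 days after a post-emergence spray. Plants had grown 14 days in pots under 24/16° C, 14 h light, 65% humidity before treatment.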

[2] = system: Euphorbia heterophylla (EPHHL); details: Application Rate 500 g/Ha, evaluated after 13 days; for pest or weed control at 500 g/ha: Euphorbia heterophylla, post-emergence, 312 h, read-out: Control of weed species after post-emergence application, EPHHL (100=total damage to plant; 0=no damage to plant)
In short: as §1

Lolium perenne (LOLPE) = details: Application Rate 500 g/Ha, evaluated after 13 days; for pest or weed control at 500 g/ha: Lolium perenne, post-emergence, 312 h, read-out: Control of weed species after post-emergence application, LOLPE (100=total damage to plant; 0=no damage to plant)
In short: as §1

[3] = system: Chenopodium album (CHEAL); details: Application Rate 500 g/Ha, evaluated after 13 days; for pest or weed control at 500 g/ha: Chenopodium album, post-emergence, 312 h, read-out: Control of weed species after post-emergence application, CHEAL (100=total damage to plant; 0=no damage to plant)
In short: as §1

[4] = system: Ipomoea hederacea (IPOHE); details: Application Rate 500 g/Ha, evaluated after 13 days; for pest or weed control at 500 g/ha: Ipomoea hederacea, post-emergence, 312 h, read-out: Control of weed species after post-emergence application, IPOHE (100=total damage to plant; 0=no damage to plant)
In short: as §1

[5] = system: Echinochloa crus-galli (ECHCG); details: Application Rate 500 g/Ha, evaluated after 13 days; for pest or weed control at 500 g/ha: Echinochloa crus-galli, post-emergence, 312 h, read-out: Control of weed species after post-emergence application, ECHCG (100=total damage to plant; 0=no damage to plant)
In short: as §1

Setaia fabei (SETFA) = details: Application Rate 500 g/Ha, evaluated after 13 days; for pest or weed control at 500 g/ha: Setaria faberi, post-emergence, 312 h, read-out: Control of weed species after post-emergence application, SETFA (100=total damage to plant; 0=no damage to plant)
In short: as §1

Eleusine indica (ELEIN) = details: Application Rate 500 g/Ha, evaluated after 13 days; for pest or weed control at 500 g/ha: Eleusine indica, post-emergence, 312 h, read-out: Control of weed species after post-emergence application, ELEIN (100=total damage to plant; 0=no damage to plant)
In short: as §1

[6] = system: Amaranthus palmeri (AMAPA); details: Application Rate 500 g/Ha, evaluated after 13 days; for pest or weed control at 500 g/ha: Amaranthus palmeri, post-emergence, 312 h, read-out: Control of weed species after post-emergence application, AMAPA (100=total damage to plant; 0=no damage to plant)
In short: as §1

## COP(=O)([O-])C[n+]1ccc(-c2ncco2)cn1 [Compound A103]
[1]
  pest or weed control at 500 g/ha: 90%
[2]
  pest or weed control at 500 g/ha: 70%
Lolium perenne (LOLPE)
  pest or weed control at 500 g/ha: 30%
[3]
  pest or weed control at 500 g/ha: 40%
[4]
  pest or weed control at 500 g/ha: 40%
[5]
  pest or weed control at 500 g/ha: 70%
Setaia fabei (SETFA)
  pest or weed control at 500 g/ha: 80%
Eleusine indica (ELEIN)
  pest or weed control at 500 g/ha: 60%
[6]
  pest or weed control at 500 g/ha: 70%

## O=C(O)c1cccc(C[n+]2ccc(-c3ncco3)cn2)c1 [Compound A104]
[1]
  pest or weed control at 500 g/ha: 50%
[2]
  pest or weed control at 500 g/ha: 30%
Lolium perenne (LOLPE)
  pest or weed control at 500 g/ha: 10%
[3]
  pest or weed control at 500 g/ha: 20%
[4]
  pest or weed control at 500 g/ha: 10%
[5]
  pest or weed control at 500 g/ha: 50%
Setaia fabei (SETFA)
  pest or weed control at 500 g/ha: 60%
Eleusine indica (ELEIN)
  pest or weed control at 500 g/ha: 20%
[6]
  pest or weed control at 500 g/ha: 40%

## O=S(=O)([O-])CC[n+]1ccc(-c2ccsn2)cn1 [Compound A105]
[1]
  pest or weed control at 500 g/ha: 100%
[2]
  pest or weed control at 500 g/ha: 100%
Lolium perenne (LOLPE)
  pest or weed control at 500 g/ha: 70%
[3]
  pest or weed control at 500 g/ha: 90%
[4]
  pest or weed control at 500 g/ha: 70%
[5]
  pest or weed control at 500 g/ha: 80%
Setaia fabei (SETFA)
  pest or weed control at 500 g/ha: 90%
Eleusine indica (ELEIN)
  pest or weed control at 500 g/ha: 90%
[6]
  pest or weed control at 500 g/ha: 90%

## COP(=O)(O)CC[n+]1ccc(-c2ncco2)cn1 [Compound A106]
[1]
  pest or weed control at 500 g/ha: 80%
[2]
  pest or weed control at 500 g/ha: 60%
Lolium perenne (LOLPE)
  pest or weed control at 500 g/ha: 0%
[3]
  pest or weed control at 500 g/ha: 0%
[4]
  pest or weed control at 500 g/ha: 20%
[5]
  pest or weed control at 500 g/ha: 40%
Setaia fabei (SETFA)
  pest or weed control at 500 g/ha: 50%
Eleusine indica (ELEIN)
  pest or weed control at 500 g/ha: 20%
[6]
  pest or weed control at 500 g/ha: 10%

## CC(C)(CC(=O)O)[n+]1ccc(-c2ncco2)cn1 [Compound A107]
[1]
  pest or weed control at 500 g/ha: 70%
[2]
  pest or weed control at 500 g/ha: 30%
Lolium perenne (LOLPE)
  pest or weed control at 500 g/ha: 20%
[3]
  pest or weed control at 500 g/ha: 50%
[4]
  pest or weed control at 500 g/ha: 20%
[5]
  pest or weed control at 500 g/ha: 40%
Setaia fabei (SETFA)
  pest or weed control at 500 g/ha: 50%
Eleusine indica (ELEIN)
  pest or weed control at 500 g/ha: 30%
[6]
  pest or weed control at 500 g/ha: 100%

## COP(=O)(CC[n+]1ccc(-c2ncco2)cn1)OC.O=C([O-])C(F)(F)F [Compound A108]
[1]
  Control of weed species after post-emergence application, DIGSA (100=total damage to plant; 0=no damage to plant): 60
[2]
  Control of weed species after post-emergence application, EPHHL (100=total damage to plant; 0=no damage to plant): 30
Lolium perenne (LOLPE)
  Control of weed species after post-emergence application, LOLPE (100=total damage to plant; 0=no damage to plant): 10
[3]
  Control of weed species after post-emergence application, CHEAL (100=total damage to plant; 0=no damage to plant): 20
[4]
  Control of weed species after post-emergence application, IPOHE (100=total damage to plant; 0=no damage to plant): 30
[5]
  Control of weed species after post-emergence application, ECHCG (100=total damage to plant; 0=no damage to plant): 30
Setaia fabei (SETFA)
  Control of weed species after post-emergence application, SETFA (100=total damage to plant; 0=no damage to plant): 30
Eleusine indica (ELEIN)
  Control of weed species after post-emergence application, ELEIN (100=total damage to plant; 0=no damage to plant): 20
[6]
  Control of weed species after post-emergence application, AMAPA (100=total damage to plant; 0=no damage to plant): 20

## N[C@@H](CC[n+]1ccc(-c2ncco2)cn1)C(=O)O [Compound A110]
[1]
  pest or weed control at 500 g/ha: 90%
[2]
  pest or weed control at 500 g/ha: 40%
Lolium perenne (LOLPE)
  pest or weed control at 500 g/ha: 20%
[3]
  pest or weed control at 500 g/ha: 80%
[4]
  pest or weed control at 500 g/ha: 20%
[5]
  pest or weed control at 500 g/ha: 100%
Setaia fabei (SETFA)
  pest or weed control at 500 g/ha: 80%
Eleusine indica (ELEIN)
  pest or weed control at 500 g/ha: 100%
[6]
  pest or weed control at 500 g/ha: 90%

## O=C(O)CC[n+]1ccc(-c2nccs2)cn1 [Compound A111]
[1]
  pest or weed control at 500 g/ha: 100%
[2]
  pest or weed control at 500 g/ha: 90%
Lolium perenne (LOLPE)
  pest or weed control at 500 g/ha: 90%
[3]
  pest or weed control at 500 g/ha: 90%
[4]
  pest or weed control at 500 g/ha: 70%
[5]
  pest or weed control at 500 g/ha: 100%
Setaia fabei (SETFA)
  pest or weed control at 500 g/ha: 100%
Eleusine indica (ELEIN)
  pest or weed control at 500 g/ha: 100%
[6]
  pest or weed control at 500 g/ha: 90%

## COC(=O)CC[n+]1ccc(-c2nccs2)cn1 [Compound A112]
[1]
  pest or weed control at 500 g/ha: 90%
[2]
  pest or weed control at 500 g/ha: 50%
Lolium perenne (LOLPE)
  pest or weed control at 500 g/ha: 30%
[3]
  pest or weed control at 500 g/ha: 60%
[4]
  pest or weed control at 500 g/ha: 20%
[5]
  pest or weed control at 500 g/ha: 50%
Setaia fabei (SETFA)
  pest or weed control at 500 g/ha: 60%
Eleusine indica (ELEIN)
  pest or weed control at 500 g/ha: 90%
[6]
  pest or weed control at 500 g/ha: 50%
